According to US9347934B2, “Assays for identifying compounds that modulate bitter taste” (CHROMOCELL CORPORATION, priority 2011, dated 2016):

What was measured:
TAS2R3 = target: T1, TAS2R3 (Homo sapiens, UniProt Q9NYW6); assay: Calcium fluorescence functional assay, TAS2R3 cell line; type: cell-based; settings: 20 mM tastant; cell line expressing human TAS2R3 and mouse Gα15
T1 construct: expressed in transfected cells
T1 sequence (Q9NYW6 1-316): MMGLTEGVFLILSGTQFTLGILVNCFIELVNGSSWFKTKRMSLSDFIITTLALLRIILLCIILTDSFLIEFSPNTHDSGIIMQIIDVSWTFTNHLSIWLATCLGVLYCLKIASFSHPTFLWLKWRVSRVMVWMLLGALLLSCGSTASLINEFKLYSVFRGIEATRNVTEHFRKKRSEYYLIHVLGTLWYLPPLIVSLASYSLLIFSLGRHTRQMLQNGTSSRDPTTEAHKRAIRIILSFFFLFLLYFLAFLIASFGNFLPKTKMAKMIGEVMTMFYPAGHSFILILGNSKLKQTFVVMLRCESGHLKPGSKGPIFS
Description: (§1) Accordingly, each cell line of the panel expressed a human bitter taste receptor and mouse Gα15 signaling protein.
(§2) Probenecid was not included in the load solution.
(§3) After dye loading, cell plates were placed in a fluorescent plate reader (e.g., FDSS6000 (Hamamatsu, Japan)) and receptor stimulation was measured by adding 50 ul of 3× concentrated ligand/agonist stock. Fluorescence was monitored continuously for 10 s before agonist addition and for 100-250 s after stimulation with agonist.
(§4) Receptor Activation is defined as follows: % Activation=[((Maximum signal fluorescence−Minimum signal fluorescence)−(Maximum control fluorescence−Minimum control fluorescence))/(Maximum buffer fluorescence−Minimum buffer fluorescence)]*100 Functional Response=[(Maximum signal fluorescence−Minimum signal fluorescence)−(Maximum control fluorescence−Minimum control fluorescence)] • Signal Fluorescence: refers to the change in fluorescence seen with addition of ligand • Control fluorescence: refers to the change in fluorescence seen with addition of buffer (negative control) • Calcium signals from ligand and control were normalized to the basal fluorescence of the cells prior to the stimulation.
(§5) A concentration analysis was performed and EC50 values were calculated by nonlinear regression using the formula: Y=Bottom+(Top-Bottom)/(1+10^((Log EC50-X)*Hill Slope)), X=log of dose or concentration, Y=Response (increasing as X increases), Top=maximum signal, Bottom=minimum signal.

TAS2R13 = target: T2, TAS2R13 (Homo sapiens, UniProt Q9NYV9); assay: Calcium fluorescence functional assay, TAS2R13 cell line; type: cell-based; settings: for TAS2R13 bitter taste receptor activity (changes in intracellular calcium): 20 mM tastant, cell line expressing human TAS2R13 and mouse Gα15
T2 construct: expressed in transfected cells
T2 sequence (Q9NYV9 1-303): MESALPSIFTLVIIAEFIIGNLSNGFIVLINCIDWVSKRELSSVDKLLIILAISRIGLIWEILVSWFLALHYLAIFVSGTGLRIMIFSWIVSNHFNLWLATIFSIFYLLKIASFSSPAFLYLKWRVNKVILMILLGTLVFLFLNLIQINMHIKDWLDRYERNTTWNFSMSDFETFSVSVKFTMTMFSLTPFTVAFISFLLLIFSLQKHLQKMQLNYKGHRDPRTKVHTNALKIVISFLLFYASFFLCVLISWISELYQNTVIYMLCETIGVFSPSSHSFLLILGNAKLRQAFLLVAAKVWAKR
Description: as §1, §2, §3, §4, §5

TAS2R46 = target: T3, TAS2R46 (Homo sapiens, UniProt P59540); assay: Calcium fluorescence functional assay, TAS2R46 cell line; type: cell-based; settings: 20 mM tastant; cell line expressing human TAS2R46 and mouse Gα15
T3 construct: expressed in transfected cells
T3 sequence (P59540 1-309): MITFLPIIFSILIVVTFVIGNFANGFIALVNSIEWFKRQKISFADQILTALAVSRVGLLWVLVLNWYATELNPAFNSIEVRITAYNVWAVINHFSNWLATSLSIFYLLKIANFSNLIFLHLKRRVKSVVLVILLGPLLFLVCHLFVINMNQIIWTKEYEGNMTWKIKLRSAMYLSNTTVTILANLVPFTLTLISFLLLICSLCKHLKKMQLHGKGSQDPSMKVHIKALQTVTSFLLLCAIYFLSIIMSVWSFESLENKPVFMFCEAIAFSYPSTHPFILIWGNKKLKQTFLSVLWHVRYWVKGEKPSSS
Description: as §1, §2, §3, §4, §5

TAS2R49 = target: T4, TAS2R49 (Homo sapiens, UniProt P59543); assay: Calcium fluorescence functional assay, TAS2R49 cell line; type: cell-based; settings: 20 mM tastant; cell line expressing human TAS2R49 and mouse Gα15
T4 construct: expressed in transfected cells
T4 sequence (P59543 1-309): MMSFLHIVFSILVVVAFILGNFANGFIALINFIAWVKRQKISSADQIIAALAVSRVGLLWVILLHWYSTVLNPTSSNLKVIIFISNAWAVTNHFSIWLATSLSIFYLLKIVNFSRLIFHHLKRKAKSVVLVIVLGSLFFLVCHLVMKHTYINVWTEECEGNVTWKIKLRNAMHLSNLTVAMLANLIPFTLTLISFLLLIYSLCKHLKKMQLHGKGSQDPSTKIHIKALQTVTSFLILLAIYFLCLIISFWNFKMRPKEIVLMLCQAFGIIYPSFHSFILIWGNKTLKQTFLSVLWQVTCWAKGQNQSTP
Description: as §1, §2, §3, §4, §5

TAS2R50 = target: T5, TAS2R50 (Homo sapiens, UniProt P59544); assay: Calcium fluorescence functional assay, TAS2R50 cell line; type: cell-based; settings: 20 mM tastant; cell line expressing human TAS2R50 and mouse Gα15
T5 construct: expressed in transfected cells
T5 sequence (P59544 1-299): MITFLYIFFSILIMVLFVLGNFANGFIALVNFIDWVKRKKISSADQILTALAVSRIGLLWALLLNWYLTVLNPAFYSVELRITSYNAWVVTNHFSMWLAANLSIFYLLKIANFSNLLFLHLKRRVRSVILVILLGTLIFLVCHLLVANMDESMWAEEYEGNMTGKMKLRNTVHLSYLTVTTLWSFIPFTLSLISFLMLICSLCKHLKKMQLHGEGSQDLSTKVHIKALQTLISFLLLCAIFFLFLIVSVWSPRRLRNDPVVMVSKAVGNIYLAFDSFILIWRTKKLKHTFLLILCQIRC
Description: as §1, §2, §3, §4, §5

[1] = tested on: panel of twenty-five bitter taste receptor expressing cell lines; assay: Panel of twenty-five bitter receptor expressing cell lines exposed to 20 mM tastant; type: cell-based, human; settings: the remaining nineteen (KCl) or eighteen receptors
Description: as §1, §2, §3, §4

TAS2R16 = target: T6, TAS2R16 (Homo sapiens, UniProt Q9NYV7); assay: Calcium fluorescence functional assay, TAS2R16 cell line; type: cell-based; settings: 20 mM tastant; cell line expressing human TAS2R16 and mouse Gα15
T6 construct: expressed in transfected cells
T6 sequence (Q9NYV7 1-291): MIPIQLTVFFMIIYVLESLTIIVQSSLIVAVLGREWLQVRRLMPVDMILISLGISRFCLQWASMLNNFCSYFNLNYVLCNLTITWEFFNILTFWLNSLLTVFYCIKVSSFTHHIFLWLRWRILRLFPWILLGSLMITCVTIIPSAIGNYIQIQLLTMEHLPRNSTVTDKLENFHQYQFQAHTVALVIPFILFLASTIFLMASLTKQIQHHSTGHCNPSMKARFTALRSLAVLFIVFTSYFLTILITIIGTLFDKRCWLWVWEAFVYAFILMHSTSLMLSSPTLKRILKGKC
Description: as §1, §2, §3, §4, §5

| Structure (SMILES) | TAS2R3 bitter taste receptor activity (changes in intracellular calcium) (TAS2R3) | TAS2R13 bitter taste receptor activity (changes in intracellular calcium) (TAS2R13) | TAS2R46 bitter taste receptor activity (changes in intracellular calcium) (TAS2R46) | TAS2R49 bitter taste receptor activity (changes in intracellular calcium) (TAS2R49) | TAS2R50 bitter taste receptor activity (changes in intracellular calcium) (TAS2R50) | functional response of the remaining (non-responding) receptors of the panel, threshold [1] | TAS2R16 bitter taste receptor activity (changes in intracellular calcium) (TAS2R16) | EC50 (TAS2R13; increasing concentrations of KCl, TAS2R13 cell line (FIG. 3), read-out: EC50 value, activation of TAS2R13) |
| --- | --- | --- | --- | --- | --- | --- | --- | --- |
| CC(O)C(=O)[O-].[K+] (stereo not shown) [Potassium lactate, potassium lactate] | did not induce | induced | induced | did not induce | did not induce | ≤ 40% | did not induce |  |
| [Cl-].[K+] [KCl, potassium chloride] | did not induce | induced | did not induce | did not induce | did not induce | ≤ 40% | did not induce | 5 to 15 mM |
| CC1=CC(=O)NS(=O)(=O)O1 [Acesulfame K] | did not induce | induced | did not induce | did not induce | did not induce | ≤ 40% | induced |  |
